The text below walks through data of patent publication US9889146B2, “Benzoxaborole compounds and uses thereof” (priority 2012, dated 2018).

Common to all, as to assay type: cell-based
Test [1] has as its system E. coli ATCC 25922 wild type and mutants. As to the kind of experiment: MIC in M9 minimal media. The conditions noted are these: Escherichia coli, read-out: MICs in M9 minimal media. The protocol:
(§1) Spontaneous Resistance Frequency was determined in vitro for GSK2251052 and the resistance mutants in E. coli ATCC 25922, K. pneumoniae ATCC 13883, and P. aeruginosa ATCC 27853 strains were characterized. GSK2251052 was prepared as described in U.S. Pat. No. 7,816,344 (the entire contents of which are hereby incorporated by reference herein). LB broth, Mueller Hinton II broth (adjusted), and Difco noble agar were obtained from Becton Dickinson (Cockeysville, Md., USA). M9 minimal broth containing 1×M9 salt, 0.5 μg/ML thiamine, 1 mM MgSO4, 0.1 mM CaCl2, 2% glucose, was obtained from Teknova (Hollister, Calif., USA). Antibacterial agents ciprofloxacin, ceftazidime, chloramphenicol, gentamycin, kanamycin, polymixin B, tobramycin and trimethoprim, and amino acids were obtained from Sigma Chemicals (St. Louis, Mo., USA). Strains were obtained from ATCC (Manassas, Va., USA).
(§2) Susceptibility tests were performed following the recommendations for aerobic bacteria (M7-A7) from the Clinical and Laboratories Standards Institute (CLSI).
(§3) The aminoacyl-tRNA synthetase enzyme, LeuRS, ensures the correct amino acid, leucine, is attached to tRNA^Leu. The LeuRS synthetic active site is capable of aminoacylating tRNA^Leu with amino acids structural similar to leucine (norvaline, norleucine, isoleucine and methionine). These mischarged tRNA^Leu are hydrolyzed by the editing domain, thus preventing the deleterious incorporation of incorrect amino acids into the growing polypeptide. The laboratory generated mutants were further tested for their ability to grow in defined media with exogenously added amino acids. Norvaline and norleucine, structurally similar to leucine, were tested in M9 minimal media. […]

Test [2] deals with K. pneumoniae ATCC 13883 wild type and mutants. As to the kind of experiment: MIC in M9 minimal media. The following applies: Klebsiella pneumoniae, read-out: MICs in M9 minimal media. The protocol:
as §1, §2, §3

The subject of test [3] is P. aeruginosa ATCC 27853 wild type and mutants. As to the kind of experiment: MIC in M9 minimal media. The conditions noted are these: Pseudomonas aeruginosa, read-out: MICs in M9 minimal media. On the procedure: as §1, §2, §3
For test [4], the system named is Escherichia coli 1161435 parent and mutant strains B4, B26 and B35. The test can be described thus: Sensitivity to leucine analogs in MH and M9 media.
Test [5] has as its system Citrobacter freundii (AmpC). The test can be described thus: microbe, parasite or virus in culture. The following applies: Citrobacter freundii.
Another test concerns E. coli (ESBL). The test can be described thus: microbe, parasite or virus in culture. The following applies: Escherichia coli.
Another test concerns Providencia spp.(all). The test can be described thus: microbe, parasite or virus in culture.
Test [6] relates to Morganella morganii (AmpC). As to the kind of experiment: microbe, parasite or virus in culture. The conditions noted are these: Morganella morganii.
The subject of test [7] is Enterobacter cloacae (WT). The test can be described thus: microbe, parasite or virus in culture. The following applies: 202 isolates, read-out: MIC90.
A further test relates to Enterobacteriaceae. As to the kind of experiment: organism not typed.
The next test deals with E. coli (WT). The test can be described thus: microbe, parasite or virus in culture. The conditions noted are these: for MIC90: Escherichia coli.
For a further test, the system named is Proteus mirabilis (WT). The test can be described thus: microbe, parasite or virus in culture.
The test system of a further test is Klebsiella spp. (KPC). As to the kind of experiment: microbe, parasite or virus in culture. The conditions noted are these: Klebsiella.
Test [8] concerns Enterobacter aerogenes (AmpC). As to the kind of experiment: microbe, parasite or virus in culture. The following applies: Klebsiella aerogenes.
The subject of a further test is Klebsiella spp. (WT). The test can be described thus: microbe, parasite or virus in culture.
Another test concerns Klebsiella spp. (ESBL). The test can be described thus: microbe, parasite or virus in culture. The following applies: Klebsiella.
A further test deals with Proteus vulgaris (WT). As to the kind of experiment: microbe, parasite or virus in culture.
Test [9] concerns Enterobacter aerogenes (WT). The test can be described thus: microbe, parasite or virus in culture. The following applies: for MIC90: Klebsiella aerogenes.
Test [10] relates to Enterobacter cloacae (AmpC). The test can be described thus: microbe, parasite or virus in culture. The following applies: Enterobacter cloacae.
For a further test, the system named is S. marcescens (AmpC). As to the kind of experiment: microbe, parasite or virus in culture. The conditions noted are these: Serratia marcescens.
A further test has as its system P. aeruginosa. As to the kind of experiment: In vitro activity against P. aeruginosa clinical isolates. The protocol: GSK2251052 was tested for activity against P. aeruginosa, and its activity was compared to other antibiotics of known activity. The results are shown below in Tables 2a and 2b. Of 2,008 clinical isolates tested (from 2009-2010 subjects, of which 40% were from North America) greater than 90% were susceptible to GSK2251052 based on a potential susceptible breakpoint of ≦4 μg/mL.

The next test has as its system P. aeruginosa ATCC 27853. The test can be described thus: Spontaneous frequency of resistance. The conditions noted are these: 24 h. On the procedure: as §1
(§4) Selection of resistance to GSK2251052 was attempted by spreading various amounts of bacteria onto MHBII noble agar plates containing 4×MIC (minimum inhibitory concentration) or 10×MIC of GSK2251052. Colonies were counted after 24 hours and 48 hours incubation at 37° C. The resistance of these colonies was confirmed by their ability to grow on plates containing GSK2251052 at either 4× or 10×MIC. Frequency of resistance was determined by dividing the number of resistant mutants by the total number of cells plated as determined by plating dilutions of the overnight culture on LB plates.

A further test relates to K. pneumoniae ATCC 13883. The test can be described thus: Spontaneous frequency of resistance. The following applies: 24 h. On the procedure:
as §1, §4

Another test relates to E. coli ATCC 25922. The test can be described thus: Spontaneous frequency of resistance. The conditions noted are these: 24 h. The protocol:
as §1, §4

The mark [11] stands for this setting: Providencia spp.(all), 68 isolates, read-out: MIC90.
The mark [12] stands for this setting: Enterobacteriaceae, 2029 isolates, read-out: MIC90.
Where [13] appears, read: E. coli (WT), 214 isolates, read-out: MIC90.
Where [14] appears, read: Proteus mirabilis (WT), 235 isolates, read-out: MIC90.
Where [15] appears, read: Klebsiella spp. (WT), 159 isolates, read-out: MIC90.
Setting [16] is: Proteus vulgaris (WT), 41 isolates, read-out: MIC90.
Where [17] appears, read: Enterobacter aerogenes (WT), 199 isolates, read-out: MIC90.
Setting [18] is: P. aeruginosa, 2,008 clinical isolates, GSK2251052 based on potential susceptible breakpoint of ≦4 μg/mL.

Structures are written as SMILES. ≈ marks a conversion by molar mass, not a printed value. Read-outs that look alike come from different tables or passages of the source.

Consider `CCCC[C@H](N)C(=O)O` [Norleucine, L-Norleucine], for which the MIC in test [1] (ATCC25922, E 101(leuRS Y246H)) came to 2 µg/mL (≈ 15.2 µM); in test [1] (ATCC25922, E 102(leuRS D345G)) it was 4 µg/mL (≈ 30.5 µM); in test [1] (ATCC25922, E 107(leuRS G229S)) it was 4 µg/mL (≈ 30.5 µM); in test [1] (ATCC25922, E. coli ATCC25922), 4 µg/mL (≈ 30.5 µM); in test [2] (ATCC13883, K 104(leuRS D345Y)) it was 16 µg/mL (≈ 122 µM); in test [2] (ATCC13883, K 105(leuRS G229R)), 32 µg/mL (≈ 244 µM). Further, the MIC in test [2] (ATCC13883, K 107(leuRS S227F)) is 64 µg/mL (≈ 488 µM); in test [2] (ATCC13883, K 108(leuRS T248P)) it was 64 µg/mL (≈ 488 µM); in test [2] (ATCC13883, K 110(leuRS V338L)) it was over 64 µg/mL; in [2] (ATCC13883, Klebsiella pneumoniae ATCC13883) it was 32 µg/mL (≈ 244 µM); in [3] (ATCC27853, P 101 (leuRS T256P)) it was over 64 µg/mL; in test [3] (ATCC27853, P 106 (leuRS V342M)), over 64 µg/mL. Also, the MIC in [3] (ATCC27853, P 108 (leuRS T252P)) is over 64 µg/mL; in [3] (ATCC27853, P. aeruginosa ATCC27853) it was over 64 µg/mL. In addition, the MIC (sensitivity to leucine analogs) in test [4] (1161435 Parent, M9) is 32 µg/mL; in [4] (1161435 Parent, MH), over 128 µg/mL; in [4] (B4 (P339L), M9) it was 16 µg/mL; in [4] (B4 (P339L), MH), over 128 µg/mL; in [4] (B26 (R334H), M9) it was 8 µg/mL; in test [4] (B26 (R334H), MH), over 128 µg/mL. The MIC (sensitivity to leucine analogs) in test [4] (B35 (D251N), M9) was 16 µg/mL; in test [4] (B35 (D251N), MH) it was over 128 µg/mL. For the same compound, the “sensitivity of the mutants” value in test [4] (mutant strains in M9 minimal media) is “some sensitivity”.
As to `CC1(C)S[C@@H]2[C@H](NC(=O)[C@H](N)c3ccccc3)C(=O)N2[C@H]1C(=O)O` [Ampicillin], the MIC90 (in test [5]; with E. coli (ESBL); with Providencia spp.(all) (setting [11]); in test [6]; in test [7]; in the test with Enterobacteriaceae (setting [12])) was over 64 µg/mL in each case. For the same compound, the MIC90 (with E. coli (WT) (setting [13]); in the test on Proteus mirabilis (WT) (setting [14]); against Klebsiella spp. (KPC); in [8]; in the test with Klebsiella spp. (WT) (setting [15]); with Klebsiella spp. (ESBL)) was over 64 µg/mL in each case. Besides, the MIC90 (in the test with Proteus vulgaris (WT) (setting [16]); in test [9] (setting [17]); in test [10]; against S. marcescens (AmpC)) was over 64 µg/mL each time.
`C[C@@H](O)[C@H]1C(=O)N2C(C(=O)O)=C(S[C@@H]3CN[C@H](C(=O)N(C)C)C3)[C@H](C)[C@H]12` [Meropenem]: in the test on P. aeruginosa (setting [18]), the “% susceptible” value came out at 79.3%. Further, the “Frequency of Resistance” value with P. aeruginosa ATCC 27853 (4 X MIC) was 7 × 10^−7; in the test on P. aeruginosa ATCC 27853 (10 X MIC), <1 × 10^−9; in the test on K. pneumoniae ATCC 13883 (4 X MIC), <3 × 10^−9; with K. pneumoniae ATCC 13883 (10 X MIC), <3 × 10^−9; with E. coli ATCC 25922 (4 X MIC) it was <4 × 10^−9; with E. coli ATCC 25922 (10 X MIC) it was <4 × 10^−9.
Take `C[C@@H](O)[C@H]1C(=O)N2C(C(=O)O)=C(SCCN=CN)C[C@H]12` [Imipenem]: the MIC90 in test [5] is 1 µg/mL (≈ 3.34 µM); in the test with E. coli (ESBL) it was 0.5 µg/mL (≈ 1.67 µM); in the test on Providencia spp.(all) (Providencia), 2 µg/mL (≈ 6.68 µM); in test [6] it was 4 µg/mL (≈ 13.4 µM); in [7], 1 µg/mL (≈ 3.34 µM); in the test with Enterobacteriaceae, 2 µg/mL (≈ 6.68 µM). Further, the MIC90 against E. coli (WT) came to 0.25 µg/mL (≈ 0.835 µM); against Proteus mirabilis (WT) (Proteus mirabilis), 4 µg/mL (≈ 13.4 µM); with Klebsiella spp. (KPC), 64 µg/mL (≈ 214 µM); in [8] it was 2 µg/mL (≈ 6.68 µM); against Klebsiella spp. (WT) (Klebsiella), 0.25 µg/mL (≈ 0.835 µM); in the test with Klebsiella spp. (ESBL), 0.5 µg/mL (≈ 1.67 µM). For the same compound, the MIC90 against Proteus vulgaris (WT) (Proteus vulgaris) was determined as 4 µg/mL (≈ 13.4 µM); in test [9], 2 µg/mL (≈ 6.68 µM); in test [10], 1 µg/mL (≈ 3.34 µM); in the test on S. marcescens (AmpC) it was 2 µg/mL (≈ 6.68 µM). Besides, the “% susceptible” value with P. aeruginosa was found to be 72.9%. The “susceptibility category of MIC90” value in the test with Providencia spp.(all) is listed as “**2”; in the test on Enterobacteriaceae, “**2”; with E. coli (WT), “*0.25”; in the test with Proteus mirabilis (WT), “***4”; in the test with Klebsiella spp. (WT) it was “*0.25”; in the test with Proteus vulgaris (WT) it was “***4”. Moreover, the “susceptibility category of MIC90” value in test [9] is given as “**2”.
Consider `CO/N=C(\C(=O)N[C@@H]1C(=O)N2C(C(=O)[O-])=C(C[N+]3(C)CCCC3)CS[C@H]12)c1csc(N)n1` [Cefepime], for which the MIC90 in [5] was 16 µg/mL (≈ 33.3 µM); with E. coli (ESBL), over 32 µg/mL; in the test with Providencia spp.(all) (setting [11]), over 32 µg/mL; in test [6], over 32 µg/mL; in the test on Enterobacteriaceae (setting [12]), 4 µg/mL (≈ 8.32 µM); in the test on E. coli (WT) (setting [13]) it was at most 1 µg/mL. The MIC90 was at most 1 µg/mL in the test on Proteus mirabilis (WT) (setting [14]); over 32 µg/mL against Klebsiella spp. (KPC); 8 µg/mL (≈ 16.6 µM) in [8]; at most 1 µg/mL in the test with Klebsiella spp. (WT) (setting [15]); over 32 µg/mL against Klebsiella spp. (ESBL); at most 1 µg/mL in the test with Proteus vulgaris (WT) (setting [16]). Further, the figures for the MIC90 (in test [9] (setting [17]); with S. marcescens (AmpC)) were at most 1 µg/mL and 8 µg/mL (≈ 16.6 µM), respectively. Besides, the “% susceptible” value in the test with P. aeruginosa (setting [18]) was 75.3%.
